From patent US10045985B2, “Heteroaryl compounds as BTK inhibitors and uses thereof” (Merck Patent GmbH, priority 2015, dated 2018)

Assays:
full-length human BTK = biological target: T1, full-length human BTK (Homo sapiens, UniProt Q06187); assay: Assay A: microfluidic off-chip mobility shift assay for potency against BTK enzyme; assay type: biochemical; conditions: 90 min at 27° C.
T1 construct: full-length human BTK (08-080) from CarnaBio USA, Inc; purchased CarnaBio USA, Inc., Natick, Mass; 08-080
T1 sequence (Q06187 whole entry): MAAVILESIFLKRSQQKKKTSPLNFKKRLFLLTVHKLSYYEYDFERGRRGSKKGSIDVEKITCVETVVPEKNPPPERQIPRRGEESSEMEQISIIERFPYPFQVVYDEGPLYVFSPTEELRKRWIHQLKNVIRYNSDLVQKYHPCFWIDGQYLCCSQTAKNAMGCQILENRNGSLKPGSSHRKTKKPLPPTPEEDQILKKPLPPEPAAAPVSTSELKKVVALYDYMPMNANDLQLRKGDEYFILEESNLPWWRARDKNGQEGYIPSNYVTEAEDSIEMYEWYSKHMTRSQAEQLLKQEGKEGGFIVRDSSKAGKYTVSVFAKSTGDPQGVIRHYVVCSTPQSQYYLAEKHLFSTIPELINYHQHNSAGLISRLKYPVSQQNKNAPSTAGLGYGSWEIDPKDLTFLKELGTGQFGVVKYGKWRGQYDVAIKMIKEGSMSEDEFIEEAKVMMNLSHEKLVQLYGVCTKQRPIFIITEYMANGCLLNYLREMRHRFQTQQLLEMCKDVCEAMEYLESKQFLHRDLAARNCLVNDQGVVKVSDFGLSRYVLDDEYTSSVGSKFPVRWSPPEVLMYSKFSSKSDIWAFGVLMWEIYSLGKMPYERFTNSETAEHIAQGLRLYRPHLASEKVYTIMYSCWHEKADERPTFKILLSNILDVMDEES
Source text: Assay A: Microfluidic Off-Chip Mobility Shift Assay Protocol for Potency Assessment Against BTK Enzyme
The protocol below describes microfluidic, off-chip mobility shift kinase assay to measure inherent potency of compounds against BTK enzyme. The mechanics of the assay platform are best described by the vendor (Caliper Life Sciences, a PerkinElmer Company, Hopkinton, Mass.) on their website at the following URL:
Briefly, 2.5× stocks of full-length human BTK (08-080) from CarnaBio USA, Inc., Natick, Mass., 1.6×ATP and appropriate kinKDR peptide substrate (FITC-AHA-EEPLYWSFPAKKK-NH2; developed in-house) were prepared in kinase reaction buffer consisting of 25 mM MgCl2, 0.015% Brij-35 (30%), 100 mM Hepes, pH 7.5, and 10 mM DTT.
5 uL of enzyme buffer and 7.5 uL of ATP/kinKDR peptide substrate mix were added to Matrix (#115304) 384-well, sterile, polypropylene plates (Thermo Fisher Scientific, Hudson, N.H.) with 125 nL of serially diluted compounds prepared in 100% DMSO, and incubated for 90 min. at 27° C. following the incubation period, reactions were stopped by adding 60 uL stop buffer consisting of 100 mM Hepes, pH 7.5, 0.015% Brij-35 (30%), 0.277% Coating Reagent #3 (Caliper Life Sciences, Mountain View, Calif.), 5% DMSO. Stopped reactions were monitored at −2 PSI, −3000 V/−700 V in a LabChip 3000 plate reader from Caliper Life Sciences, a PerkinElmer Company (Hopkinton, Mass.), and the activity was measured by off-chip mobility shift assay measuring the charge/mass difference between substrate and product resulting from peptide phosphorilation. IC50 and efficacy were determined by plotting log [Inhibitor] vs. % Activity in GeneData Screener (Basel, Switzerland).

[1] = system: anti-IgM-induced expression of CD69 in human peripheral blood mononuclear cells (PBMCs); assay: Assay C: time dependent PMBC IC50 assay (anti-IgM-induced CD69 expression on CD19 positive cells); assay type: cell-based; conditions: PBMC, 1 h pre-treatment, anti-IgM overnight, CD69 on CD19 positive B cells
Source text: Assay C: Time Dependent PMBC IC50 Assay
Btk is critical for mediating the signalling of B cell antigen receptor (BCR) after anti-IgM stimulation. Based on this principle, a functional cell-based assay was established to determine the potency of compounds at inhibiting anti-IgM-induced expression of CD69, a downstream BCR signaling event, in freshly isolated human peripheral blood mononuclear cells (PBMCs). In the assay, a 90 al PBMC suspension containing 2.5×10^5 cells was pre-treated with 10 al of test compound at various concentrations for an hour, and then incubated overnight (approximately 16-18 hours) with 5 μl 420 μg/ml affiniPure F(ab′)2 fragment goat anti-human IgM Fc fragment per well (Dianova, Cat. No.: 109-006-129). After the incubation, the cells were washed and immunostained with an APC-labeled mouse anti-human CD69 (BD Biosciences; clone: FN50), a PerCP-Cy5.5 labelled mouse anti-human CD19 (BD Biosciences; clone: SJ25C1) and a FITC-labelled mouse anti-human CD3 (BD Biosciences; clone: HIT3a), and fixed for flow cytometric analysis of CD69 expression on CD19 positive cells (B cells). The percentage of CD69 expressing CD19 positive cells was plotted against the concentrations of test compounds to obtain a concentration response curve, and calculate an IC50 value as a measure of the potency of test compounds in the assay.

[2] = biological target: T2, BTK C481S enzyme (His-TEV-hsBTK(328-659)(C481S)) (Homo sapiens, UniProt Q06187, C481S); assay: Assay B: microfluidic off-chip mobility shift assay for potency against BTK C481S enzyme; assay type: biochemical; conditions: 90 min at 25° C.
T2 construct: His-TEV-hsBTK(328-659)(C481S); His (N); TEV cleavage site (N)
T2 sequence (Q06187 328-659 C481S): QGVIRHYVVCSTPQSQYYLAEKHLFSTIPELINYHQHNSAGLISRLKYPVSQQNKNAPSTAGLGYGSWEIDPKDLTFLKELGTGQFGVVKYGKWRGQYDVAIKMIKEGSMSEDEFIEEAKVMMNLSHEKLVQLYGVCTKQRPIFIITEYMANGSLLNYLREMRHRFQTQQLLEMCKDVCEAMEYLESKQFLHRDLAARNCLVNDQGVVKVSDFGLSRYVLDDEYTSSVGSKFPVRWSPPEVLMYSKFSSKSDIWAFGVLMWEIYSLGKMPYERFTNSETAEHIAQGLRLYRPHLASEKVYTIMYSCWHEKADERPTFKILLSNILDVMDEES
Source text: Assay B: Microfluidic Off-Chip Mobility Shift Assay Protocol for Potency Assessment Against BTK C481S Enzyme
The protocol below describes a microfluidic, off-chip mobility shift kinase assay to measure inherent potency of compounds against BTK C481S enzyme. The mechanics of the assay platform are described by the vendor (PerkinElmer, Hopkinton, Mass.) on their website at the following URL: http://caliperls.com.
Briefly, 2.5× stocks of His-TEV-hsBTK(328-659)(C481S) from the Merck Serono Protein Purification Laboratory in Darmstadt, Germany (PCS, Q27/234), 1.6×ATP and appropriate KinKDR peptide substrate (FITC-AHA-EEPLYWSFPAKKK-NH2; Tufts University Core Facility custom synthesis) were prepared in kinase reaction buffer consisting of 25 mM MgCl2, 0.015% Brij-35 (30%), 100 mM HEPES, pH 7.5, and 10 mM DTT.
5 uL of enzyme buffer and 7.5 uL of ATP/KinKDR peptide substrate mix were added to Matrix (#4315) 384-well, sterile, flat-bottom polypropylene plates (Thermo Fisher Scientific, Hudson, N.H.) with 125 nL of serially diluted compounds prepared in 100% DMSO, and incubated for 90 min. at 25° C. Following the incubation period, reactions were terminated by adding 65 uL quench buffer consisting of 100 mM HEPES, pH 7.5, 0.015% Brij-35 (30%), 0.277% Coating Reagent #3 (PerkinElmer, Mountain View, Calif.), 5% DMSO. Terminated reactions were monitored at −2 PSI, −3000 V/−700 Volts in a LabChip 3000 plate reader from Caliper Life Sciences, a PerkinElmer Company (Hopkinton, Mass.), and the activity was quantified by laser-induced fluorescence measuring the charge/mass difference between substrate and product resulting from peptide phosphorylation. IC50 and efficacy were determined by plotting log [Inhibitor] vs. % Activity in GeneData Screener (Basel, Switzerland).

| IC50 (full-length human BTK) | IC50 [2] | Compound | IC50 [1] |
| --- | --- | --- | --- |
| < 0.1 µM | < 0.1 µM | COCCOc1ccc(Nc2ncc(F)c(NC3CCCC(NC(=O)c4ccc(C(C)(C)C)cc4)C3O)n2)cc1 (racemic) [Compound 16, 4-(tert-butyl)-N-(3-((5-fluoro-2-((4-(2-methoxyethoxy)phenyl)amino)pyrimidin-4-yl)amino)-2-hydroxycyclohexyl)benzamide] | 1 to 5 µM |
| 0.1 to 1 µM | 0.1 to 1 µM | COCCOc1ccc(Nc2ncc(F)c(NC3CCCC(NC(=O)c4ccc(C5CC5)cc4)C3)n2)cc1 (centres unmarked) [Compound 10, 4-cyclopropyl-N-(3-((5-fluoro-2-((4-(2-methoxyethoxy)phenyl)amino)pyrimidin-4-yl)amino)cyclohexyl)benzamide] | > 5 µM |
| < 0.1 µM | < 0.1 µM | COCCOc1ccc(Nc2ncc(F)c(N[C@@H]3CCC[C@@H](NC(=O)c4ccc(C(C)(C)C)cc4)C3O)n2)cc1 (some centres unmarked) [Compound 24] |  |
